Reference: patent publication US11330999B2 (MEMORIAL SLOAN KETTERING CANCER CENTER, priority 2017, dated 2022)

Legend:
[1] = Hyperpolarized T1 of arginine guanidine-carbon at 1T; format: physicochemical; details: 30° flip angle, 3 s repetition time, average of two
Method: (§1) To confirm the reduction of quadrupolar relaxation at the guanidine-carbon by ^15N enrichment, ^13C NMR spectra for unlabeled and [6-^13C, 6-^15N3]-L-Arginine-HCl (21, as described in Example 2) was obtained with a 14.1T ^13C NMR. The full width half max (FWHM) of the guanidine-carbon peak was measured, and the FWHM of the carbon-1 peak was used as an internal standard. For hyperpolarized T1 measurements compound 21 was mixed with 1 equivalent HCl and dissolved to a final concentration of 1.3 M in 2:3 H2O:glycerol with 15 mM of a OX063 radical. The sample was polarized for at least 1 h in a SpinSolve polarizer. […] This was performed twice and the calculated T1 values were averaged.
(§2) The FWHM of the guanidine-carbon peak for natural abundance and compound 21 was measured to be 1.4 Hz and 1.0 Hz, respectively, and the FWHM of carbon-1 was 0.9 Hz for both compounds (FIG. 5B).

[2] = Thermal equilibrium T1 at high field (14.1T), inversion recovery; format: physicochemical; details: for T1 Value (s) D2O: 95:5 D2O:H2O, 100 mM Tris pD 7.4; for T1 Value (s) H2O: 100% H2O, 100 mM Tris pH 7.4
Method: (§3) [5-^13C]-glutamine (Cambridge Isotope Laboratories), [^13C]-urea (Sigma Aldrich), [^13C, ^15N2]-urea (Sigma Aldrich), [6-^13C]-arginine (Cambridge Isotope Laboratories), [5-^13C, ^15N]-glutamine (24) (24, as described in Example 7) and [6-^13C, ^15N3]-arginine (21, as described in Example 2) were evaluated to determine thermal equilibrium T1 and T2. An aliquot of each compound was dissolved in 95:5 D2O:H2O containing 100 mM Tris pD 7.4 and 100% H2O containing 100 mM Tris pH 7.4. [^13C]-urea and [^13C, ^15N2]-urea were dissolved to a final concentration of 100 mM.
(§4) ^13C NMR spectra for each compound dissolved in 95:5 D2O:H2O and 100% H2O was obtained with a 14.1T ^13C NMR (Bruker, USA). For inversion recovery experiments, 13 to 15 different delay times between the 180° and 90° pulses, spanning 3T1, were sampled. Each spectrum was an average of 3 to 4 scans, and a 5T1 to 6T1 pre-scan wait time was used to allow re-polarization of carbon nuclear spins between scans. T2 values were measured using a Carr-Purcell-Meiboom-Gill (CPMG) sequence for each compound dissolved in 95:5 D2O:H2O and 100% H2O. A 10 ms (or 5 ms ^13C-urea samples) wait-time between 180° pulses was used, and signal was acquired at total echo times spanning 3T2. For both T1- and T2-relaxation curve fitting, spectra were imported into Mnova (Mestrelabs, USA) and the area under the curve (AUC) of the ^13C resonance of interest was integrated. AUC values were exported to Prism 7 (GraphPad Software, USA), plotted against time on the x-axis, and data points were fit to the Bloch equations for T1 and T2.
(§5) When each compound was dissolved in D2O, the exchangeable protons on the nitrogen atoms rapidly exchange with deuterium in the solvent. As described in Table 1, at high field, each compound having protons exchanged with deuterium extended the T1 of ^13C relaxation times directly bonded to —NH or —NH2 residues, respectively. This effect is further illustrated for [6-^13C]-/[6-^13C, ^15N3]-arginine in FIG. 7.

[3] = Thermal equilibrium T2 at high field (14.1T), CPMG; format: physicochemical; details: for T2 Value (s) D2O: 95:5 D2O:H2O, 100 mM Tris pD 7.4; for T2 Value (s) H2O: 100% H2O, 100 mM Tris pH 7.4
Method: as §3, §4, §5

[4] = Hyperpolarized T1 at 1T after dissolution in buffered H2O or D2O; format: physicochemical; details: for Hyperpolarized T1 Value (s) D2O: dissolution in 100 mM Tris 1 mM EDTA pD 7.4 D2O; for Hyperpolarized T1 Value (s) H2O: dissolution in 100 mM Tris 1 mM EDTA pH 7.4 H2O
Method: Each compound was prepared with a different formulation, as follows: [5-^13C]- and [5-^13C, ^15N]-glutamine was mixed with 1.1 equivalent HCl and dissolved to a final concentration of 1.5 Min H2O:DMSO (65:35). [^13C]— and [^13C, ^15N2]-urea was dissolved to a final concentration of 6M in glycerol. [6-^13C]- and [6-^13C, ^15N3]-arginine was mixed with 1 equivalent HCl and dissolved to a final concentration of 3.2M in H2O. Each of these preparations also contained OX063 radical (General Electric, UK) dissolved to a final concentration of 15 mM. [^13C]—/[^13C, ^15N2]-urea and [6-^13C]-/[6-^13C, ^15N3]-arginine samples were polarized in a 3.35T SpinLab Polarizer (General Electric, UK) for 1.5 hours (0.83K, 93.98 GHz), while: [5-^13C]-/[^13C, ^15N]-glutamine samples were polarized in a 5T SpinLab Polarizer for 2 hours (0.83K, 93.98 GHz). Following polarization, the HP substrate was ejected from the polarizer via rapid dissolution, during which a superheated solution of 100 mM Tris 1 mM EDTA in pH 7.4 H2O or pD 7.4 D2O is run through the sample vial to dissolve the polarized substrate and eject it into a pre-chilled glass vial (−20° C.).

[5] = Hyperpolarized T1 measurement of 13C,15N-xanthine at 1T; format: physicochemical; details: mono-exponential decay fit corrected for flip angle
Method: (§6) A preparation containing 0.15-0.2 M [2-^13C, 1,3-^15N2]-3,7-dihydro-1H-purine-2,6-dione (6, as described in Example 1) and the OX063 radical was hyperpolarized using a SPINlab hyperpolarizer. T1 measurements were performed using 1T Magritek Spectrometer. For the acquisition of hyperpolarized spectra, data was acquired with a 5 s repetition time and 15° excitation for a total of 45 s. In vitro enzymatic experiments to evaluate the activity of XO in oxidizing xanthine (XA) to uric acid (UA) using superoxide as a cofactor were performed using 100 mg of mouse liver extract together with a PMS/NADH+ system to generate O^2−. ^13C NMR spectra was acquired using a 14.1T NMR spectrometer.
(§7) Compound 6 was hyperpolarized. The ^13C chemical shift between hyperpolarized XA and hyperpolarized UA was measured and determined to be 0.8 ppm. After dissolution, spectra of compound 6 were obtained and fit to a mono-exponential decay function, correcting for flip angle, to determine the spin-lattice relaxation time. A T1 of 77±1.4 s was measured (FIG. 2).

[6] = target: T1, Xanthine Oxidase (XO) (Mus musculus, UniProt Q00519); experiment: In vitro oxidation of xanthine by XO in mouse liver extract with O2− (PMS/NADH system), 13C NMR; format: biochemical; details: 100 mg mouse liver extract, in the presence of O2−
T1 construct: from tissue; host or cells: mouse liver extract
T1 sequence (Q00519 whole entry): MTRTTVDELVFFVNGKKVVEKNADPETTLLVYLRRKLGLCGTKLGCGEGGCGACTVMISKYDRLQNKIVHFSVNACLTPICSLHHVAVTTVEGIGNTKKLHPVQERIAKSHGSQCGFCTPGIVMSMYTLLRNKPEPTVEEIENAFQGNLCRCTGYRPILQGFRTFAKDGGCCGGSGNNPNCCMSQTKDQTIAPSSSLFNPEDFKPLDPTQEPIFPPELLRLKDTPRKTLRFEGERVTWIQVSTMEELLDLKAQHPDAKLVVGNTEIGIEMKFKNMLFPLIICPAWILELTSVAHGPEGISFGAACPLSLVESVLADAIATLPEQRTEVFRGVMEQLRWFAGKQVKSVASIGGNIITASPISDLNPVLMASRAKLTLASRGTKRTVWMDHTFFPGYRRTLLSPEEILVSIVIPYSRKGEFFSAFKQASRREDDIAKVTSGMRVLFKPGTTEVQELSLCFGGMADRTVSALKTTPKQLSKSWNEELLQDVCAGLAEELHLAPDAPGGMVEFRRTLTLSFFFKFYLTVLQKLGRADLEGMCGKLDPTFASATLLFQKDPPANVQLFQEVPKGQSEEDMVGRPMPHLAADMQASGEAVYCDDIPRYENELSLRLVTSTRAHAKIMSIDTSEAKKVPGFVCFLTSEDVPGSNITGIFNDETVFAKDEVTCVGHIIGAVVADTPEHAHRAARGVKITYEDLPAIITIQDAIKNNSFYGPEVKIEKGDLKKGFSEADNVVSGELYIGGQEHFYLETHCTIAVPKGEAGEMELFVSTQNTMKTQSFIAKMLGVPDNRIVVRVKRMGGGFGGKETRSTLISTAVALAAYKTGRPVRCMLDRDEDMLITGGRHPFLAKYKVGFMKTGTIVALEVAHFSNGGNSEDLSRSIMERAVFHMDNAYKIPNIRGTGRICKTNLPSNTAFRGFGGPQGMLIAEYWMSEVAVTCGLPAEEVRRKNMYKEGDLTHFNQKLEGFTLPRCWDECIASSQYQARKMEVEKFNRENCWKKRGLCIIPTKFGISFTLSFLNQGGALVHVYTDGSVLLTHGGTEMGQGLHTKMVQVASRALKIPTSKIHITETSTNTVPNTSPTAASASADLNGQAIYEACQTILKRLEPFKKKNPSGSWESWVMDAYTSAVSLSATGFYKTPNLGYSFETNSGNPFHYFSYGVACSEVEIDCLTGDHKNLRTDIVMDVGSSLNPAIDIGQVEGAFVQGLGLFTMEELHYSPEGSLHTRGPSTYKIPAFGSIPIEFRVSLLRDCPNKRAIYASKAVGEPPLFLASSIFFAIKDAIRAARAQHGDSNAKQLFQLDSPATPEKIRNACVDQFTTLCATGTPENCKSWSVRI
Method: as §6, §7

[7] = system: U251 cells; experiment: CellROX green fluorescence microscopy of intracellular ROS; format: cell-based; details: menadione-treated U251 cells, co-incubation for 45 min
Method: Western blots for XO and xanthine transporter were performed using 20 ng of protein extract from 14 cell lines. In vitro fluorescent microscopy using CellROX green was performed in U251 cells to evaluate intracellular reactive oxygen species (ROS) and the effect of xanthine as an ROS scavenger. 14 different cancer cell lines from renal, sarcoma, lung, prostate, breast, pancreatic, oral, epithelial cancer were also screened to evaluate expression of xanthine transporter and XO. In all the cells, a high expression of XO was observed, whereas xanthine transporter was variable between the cell lines, with the largest expression in U251 cells. Therefore, this cell line was used for further in vitro fluorescence experiments (FIG. 3).

[8] = FWHM of 13C NMR peaks at 14.1T (quadrupolar relaxation at guanidine-carbon); format: physicochemical; details: for FWHM of the guanidine-carbon peak / FWHM of carbon-1: 14.1T 13C NMR; for FWHM of carbon-1: internal standard
Method: as §1, §2
Therefore, the present methods may be used to follow Arg-1 activity within a tumor and serve as a surrogate readout of TAM infiltration. As such, this information may be used in therapy selection, monitoring therapeutic efficacy, and determining prognosis.

[9] = target: T2, human recombinant arginase-1 (Homo sapiens, UniProt P05089); experiment: Michaelis-Menten kinetics, colorimetric urea assay; format: biochemical; details: 37° C., compound as substrate
T2 sequence (P05089 1-322): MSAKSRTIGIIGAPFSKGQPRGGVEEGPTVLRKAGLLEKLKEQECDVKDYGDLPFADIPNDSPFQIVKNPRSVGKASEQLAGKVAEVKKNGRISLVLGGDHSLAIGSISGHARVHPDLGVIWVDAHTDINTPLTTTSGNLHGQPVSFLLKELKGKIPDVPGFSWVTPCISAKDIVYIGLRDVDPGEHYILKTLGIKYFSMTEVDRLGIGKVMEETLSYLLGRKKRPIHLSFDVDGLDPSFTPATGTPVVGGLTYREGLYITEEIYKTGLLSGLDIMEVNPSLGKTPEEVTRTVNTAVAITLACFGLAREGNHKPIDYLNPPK

[10] = target: T3, arginase (Mus musculus, UniProt Q61176); experiment: In vivo conversion of injected labeled arginine to urea in mouse liver (13C-NMR of extract); details: Balb/c mouse, tail vein 250 μL 20 mM, 1 min post-injection, extrapolated to a 1 g liver
T3 construct: from tissue; host or cells: liver of a living Balb/c mouse (in vivo)
T3 sequence (Q61176 1-323): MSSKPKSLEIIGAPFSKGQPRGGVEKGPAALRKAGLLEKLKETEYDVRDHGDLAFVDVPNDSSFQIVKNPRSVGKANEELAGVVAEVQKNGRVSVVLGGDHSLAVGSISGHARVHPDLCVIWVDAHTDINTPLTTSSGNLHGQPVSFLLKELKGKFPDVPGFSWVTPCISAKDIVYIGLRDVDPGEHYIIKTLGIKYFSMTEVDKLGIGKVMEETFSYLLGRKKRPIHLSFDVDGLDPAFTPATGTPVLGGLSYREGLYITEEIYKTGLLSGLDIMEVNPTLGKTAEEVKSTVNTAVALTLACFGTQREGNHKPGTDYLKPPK
Method: In vivo assay: A female, Balb/c mouse was equipped with a tail vein cannula and placed under anesthesia (1.5% isoflurane, 1 L/min for 30 mins), after which it was injected with 250 μL 20 mM [6-^13C, ^15N3]-arginine in 100 mM Tris, 1 mM EDTA pH 7.4 (in addition to another 100 μL of 10 U/mL heparin in saline which was in the dead space of the cannula) over the course of 10 seconds. 1 minute post-injection, the mouse was sacrificed via cervical dislocation, and the liver was collected and frozen in liquid nitrogen. 118 mg of the liver was extracted in 4% perchloric acid, the metabolite extract mixture was dried and subsequently re-suspended in D2O containing the glycine standard and 0.5 mM Gd-DOTA. A ^13C-NMR spectrum was acquired on a 600 MHz spectrometer (FIG. 10).

Row | Molecule | T1 of the guanidine-carbon [1] | T1 Value (s) D2O [2] | T1 Value (s) H2O [2] | T2 Value (s) D2O [3] | T2 Value (s) H2O [3] | Hyperpolarized T1 Value (s) D2O [4] | T1 (spin-lattice relaxation time) [5] | time to be oxidized in liver extracts [6] | oxidative stress (CellRox fluorescence) [7] | Hyperpolarized T1 Value (s) H2O [4] | FWHM of the guanidine-carbon peak [8] | FWHM of carbon-1 [8] | Vmax [9] | decrease of FWHMguanidine:FWHMcarbon-1 ratio ([8]; labeled versus natural abundance arginine) | Km [9] | [13C, 15N2]-urea produced, share of the total injected arginine dose [10]
1 | N=[13C](N)NCCC[C@H](N)C(=O)O [Arginine ^13C, [6-^13C]-arginine] | could not be measured | 9.74 ± 0.32 s | 6.62 ± 0.22 s | 0.234 ± 0.004 s | 0.184 ± 0.003 s | 32.1 ± 4.5 s |  |  |  |  |  |  |  |  |  | 
2 | O=c1[15nH][13c](=O)[15nH]c2nc[nH]c12 [Compound 6, [2-^13C, 1,3-^15N2]-3,7-dihydro-1H-purine-2,6-dione] |  |  |  |  |  |  | 77 ± 1.4 s | less than 10 minutes | reduced |  |  |  |  |  |  | 
3 | N[C@@H](CC[13C]([15NH2])=O)C(=O)O [Compound 24, (5-13C, 5-15N) L-glutamine] |  | 12.29 ± 0.32 s | 10.79 ± 0.34 s | 4.66 ± 0.67 s | 3.35 ± 0.21 s | 31.2 ± 3.8 s |  |  |  | 23.6 ± 2.1 s |  |  |  |  |  | 
4 | N[C@@H](CC[13C](N)=O)C(=O)O [Glutamine ^13C, [5-^13C]-glutamine] |  | 12.34 ± 0.21 s | 10.66 ± 0.34 s | 0.455 ± 0.004 s | 0.354 ± 0.003 s | 34.1 ± 2.5 s |  |  |  | 21.8 ± 1.8 s |  |  |  |  |  | 
5 | N[13C](N)=O [Urea ^13C, [^13C]-urea] |  | 57.24 ± 3.95 s | 31.01 ± 1.18 s | 0.100 ± 0.002 s | 0.089 ± 0.001 s | 123.8 ± 19.6 s |  |  |  | 51.6 ± 5.44 s |  |  |  |  |  | 
6 | N=C(N)NCCC[C@H](N)C(=O)O [natural abundance arginine, arginine] |  |  |  |  |  |  |  |  |  |  | 1.4 Hz | 0.9 Hz | 54.8 ± 2.2 s⁻¹ |  |  | 
7 | [6-^13C, 6-^15N3]-L-Arginine-HCl [Compound 21] | 20.4 ± 0.4 s | 9.71 ± 0.26 s | 6.83 ± 0.19 s | 2.68 ± 0.03 s | 0.82 ± 0.02 s | 31.2 ± 6.8 s |  |  |  | 13.3 ± 0.8 s | 1.0 Hz | 0.9 Hz | 48.2 ± 2.0 s⁻¹ | 29% | 2040 ± 270 µM | approx. 3%
